Several values for one entry are separate records, joined by “and”; a condition that tells them apart may be missing. Identical values can stand only once. Counter-ions that a name gives are not always drawn.
Tests used:
[1] = tested on: women with low ovarian reserve; experiment: Case study: Clomiphene citrate from day 6 of the cycle to avoid pathological premature LH rise, followed by IVF; format: in vivo, human
Method: Women with low ovarian reserve take 50 mg oral Clomiphene Citrate every second day or 25 mg each day after the 6th day of the menstrual cycle until the follicle has reached a desired size of 18-20 mm. Subsequently ovulation is artificially triggered by the administration of GnRH (Gonadotropin releasing hormone) analogs, which is preferred, or human chorionic gonadotropin (HCG), 36-40 h after the administration of the ovulation inducing agent, the women had sexual intercourse. Alternatively, the ovum was obtained after 36 h and was fertilized in vitro in the lab.
A nulliparous person with 6 years of infertility had regular short cycles of 23 days. When they were younger, they had longer cycles of up to 29 days, but starting, their cycles became gradually shorter. […] When a vaginal ultrasound scan was performed that day, a follicle of 14 mm on the left ovary was found. […] Their spouse's semen analysis was normal. They had failed six cycles of gonadotrophins-IUI (intra-uterine inseminations) and 4 IVF attempts. The last two cycles had to be cancelled due to low response in a GnRH antagonist protocol with FSH injections of up to 450 IU per day. On day 7 of their cycle a hormonal assay and vaginal ultrasound scan were performed. […] The women came back two days later. The follicle was gone and an oral contraceptive pill (OCP) for 10 days was started in order to prevent follicle growth during luteal phase. Five days after the last OCP, menstrual bleeding started. No dominant follicle could be seen, serum estradiol was 32 pg/mL and FSH 14 IU/L.
The person was again examined on day 9 of their cycle. […] Since oocytes ovulated from follicles smaller than 16 mm are often of a poor quality and do seldom produce a pregnancy, it was refrained from trying to retrieve the egg this time. The person ovulated the next day.
The person was examined again on day 6 of their next cycle. They had 2 small follicles of 12mm and 11mm on their left ovary. Serum estradiol was 113 pg/mL, FSH 7.7 IU/L and LH 5.6 IU/L. In order to avoid another pathological premature LH rise on a small follicle this cycle, the person was treated with small doses of Clomiphene citrate, i.e. 50mg Clomiphene citrate on day 6, 8 and 10 of the cycle. On day 11 two follicles on the left ovarian was found with sizes of 19mm and 15mm. Serum estradiol was 621 pg/mL and LH […]. Ovulation induction with 0.2mg triptorelix was performed on the evening of the next day and an oocyte was retrieved 36 hours later. Two mature eggs could be retrieved, but only one oocyte could be fertilized by IVF. Vaginal progesterone treatment was started the day of the egg retrieval. The embryo was transferred at day 2. Two weeks later the pregnancy test was positive.

endometrium = tested on: endometrium; set-up: species or system human; details: in vivo
Source text: Teramoto has therefore used Clomiphene, inter alia, to control the ovulation process in the course of an in vitro fertilization (IVF). To make use of both the stimulating and the inhibiting effect of Clomiphene, Teramoto et al had to administer Clomiphene right at the beginning of the menstrual cycle until the day of induction of ovulation, which is usually between the 10th and 12th day of said cycle. The stimulating effect occurs prior to the 6th cycle day, before a dominant follicle is selected, whereas the inhibiting effect starts on day six or seven after selection of the dominant follicle. However, as we observed, if Clomiphene is administered in the described manner, the growth of the endometrium is inhibited at the same time due to the anti-estrogenic effect of Clomiphene (blocking of the estrogen receptors) and thus the embryos should not be transferred in the same cycle, because implantation success rate is low. In order to increase the implantation success rate, the resulting embryos should be frozen and transferred in the next cycle where no Clomiphene medication is conducted.

| SMILES | oocytes fertilized by IVF ([1]; of the two mature eggs retrieved) | follicle size ([1]; person, 50mg Clomiphene citrate on day 6, 8 and 10 of the cycle, day 11, two follicles on the left ovary (12mm and 11mm on day 6)) | Serum estradiol ([1]; person, 50mg on day 6, 8 and 10 of the cycle, measured on day 11 (113 pg/mL on day 6)) [pg/mL] | LH ([1]; person, 50mg on day 6, 8 and 10 of the cycle, measured on day 11 (5.6 IU/L on day 6)) [IU/L] | mature eggs retrieved ([1]; retrieval 36 hours after ovulation induction with 0.2mg triptorelix on the evening of day 12) | pregnancy test ([1]; two weeks after embryo transfer at day 2, same cycle) | growth of the endometrium (endometrium) |
| --- | --- | --- | --- | --- | --- | --- | --- |
| CCN(CC)CCOc1ccc(C(=C(Cl)c2ccccc2)c2ccccc2)cc1 [Clomiphene citrate] | only one | 19 mm and 15 mm | 621 | 7.4 | Two | positive |  |
| CCN(CC)CCOc1ccc(C(=C(Cl)c2ccccc2)c2ccccc2)cc1 [Clomiphene] |  |  |  |  |  |  | inhibited |

Reference: patent publication EP2417971A1, “Clomiphene for use in increasing the chances of pregnancy of women having a low ovarian reserve” (Nitzschke, Markus, priority 2010, dated 2012)
